# Patent EP4473972A1, “COMBINATIONS COMPRISING AN ATR INHIBITOR WITH SYNERGISTIC EFFECT AGAINST GLIOMAS” (Eberhard-Karls-Universität Tübingen, priority 2023, dated 2024)
# How the values were obtained:
# [1] = system: human and murine cell lines; experiment: Anti-glioma activity in vitro (Figure 1 b); assay type: cell-based
# Procedure: The inventors seeded 5,000 or 10,000 cells, respectively, on day one, treated the next day in serum-free medium and incubated for up to 72 h. Subsequently, they measured cell viability using CellTiterBlue reagent (Promega, Madison, WI, US) according to manufacturer's instructions with a GloMax (Promega, Madison, Wl, US). The inventors normalized measurements to untreated cells. Cells were seeded the day before treatment. The inventors treated the cells in the indicated concentrations in serum-free medium for 24 h after which they changed the medium back to medium containing FCS, followed by a 7 to 21 day incubation time. The inventors used crystal violet (0.5% w/v) to stain colonies and analyzed the area coverage using the ImageJ software Plugln ColonyArea. Measurements were normalized to respective vehicle control wells.
# [2] = system: primary cultures TUE-PC1-6; experiment: Combination treatment in primary glioma cultures (Bliss independence Criterion); assay type: cell-based; settings: plus AZD6738
# Source text: Primary tumor tissue was obtained from fresh residual material upon resection at the Department of Neurosurgery, University Hospital Tübingen. The inventors cut the tissue in small pieces, washed it using Hanks Balanced Salt Solution (HBSS) (Gibco, Carlsbad, CA, US) and digested it by collagenase and dispase (Roche, Basel, CH). To remove any remaining erythrocytes, they used red blood cell lysis buffer (Sigma Aldrich, St. Louis, MO, US). The inventors then cultured the cells as GS cells in Neurobasal®-A medium. They first evaluated AZD6738 sensitivity of each primary culture and selected two concentrations. […] To evaluate combination treatment analyses, the inventors leveraged the Bliss independence Criterion.
# (§1) The inventors seeded 5,000 or 10,000 cells, respectively, on day one, treated the next day in serum-free medium and incubated for up to 72 h. Subsequently, they measured cell viability using CellTiterBlue reagent (Promega, Madison, WI, US) according to manufacturer's instructions with a GloMax (Promega, Madison, Wl, US). The inventors normalized measurements to untreated cells.
# [3] = system: LN229, LNZ308, GS-2 and GS-9 cells; experiment: 4x4 synergy map assay (ZIP synergy score), all four cell lines; assay type: cell-based; settings: combined with AZD6738 (ATRi); across all four cell lines
# Procedure: as §1
# The inventors leveraged an acute cytotoxicity assay workflow to evaluate potential interaction partners for AZD6738 which were derived from transcriptomic, proteomic and genome-wide CRISPR/Cas9 genetic dependency analyses. In a 1×1/IC50×IC50 set-up, they treated LN229 and LNZ308 cells in serum free medium for 72 h. The inventors used the original Bliss Independence Criterion to evaluate synergism potential. For this, a predicted value for additivity, derived from the product of the two monotherapy settings, was compared to the actual measurement of the combined treatment of the two drugs. […] The inventors used the R package synergyfinder with zero interaction potential (ZIP) synergy scores calculated from 4x4 concentration matrices for each tested combination and the average across the plate; see He et al. (2018); Methods for High-throughput Drug Combination Screening and Synergy Scoring. […]
# LN229-GFP cells = experiment: Zebrafish embryo xenotransplant, tumor area; assay type: in vivo, wildtype zebrafish embryos; settings: monotherapy, 48 h of treatment; not significant as compared to the DMSO control
# Procedure: The inventors used zebrafish wildtype (wt) TE embryos younger than 5 days post-fertilization (dpf). […] Labelled cells were suspended in PBS at 2*10^5 cells/µL and approx. 1 nL cell suspension was injected into the midbrain region of 24 hpf embryos. The inventors incubated the embryos at 28°C for 1 h and afterwards divided them into treatment groups. Only successfully transplanted embryos were used for further experiments. Then, the inventors applied the treatments as indicated in the respective figures and incubated that for 48 h at 35°C. For evaluation of tumor size, they imaged embryos on a Nikon Stereomicroscope (SMZ18) with the NIS Element software. The inventors assessed the tumor surface areas using Imaris (version 9.2.0).
# LN229 and LNZ308 cells = experiment: 1x1 (IC50xIC50) pre-selection screen, acute cytotoxicity assay, Bliss Independence Criterion; assay type: cell-based, human; settings: combined with AZD6738, 1x1 (IC50xIC50), 72 h, serum free medium
# Procedure: as §1
# The inventors leveraged an acute cytotoxicity assay workflow to evaluate potential interaction partners for AZD6738 which were derived from transcriptomic, proteomic and genome-wide CRISPR/Cas9 genetic dependency analyses. In a 1×1/IC50×IC50 set-up, they treated LN229 and LNZ308 cells in serum free medium for 72 h. The inventors used the original Bliss Independence Criterion to evaluate synergism potential. For this, a predicted value for additivity, derived from the product of the two monotherapy settings, was compared to the actual measurement of the combined treatment of the two drugs. […] BMC Systems Biology 4: 50. Subsequently, the inventors subjected LN229, LNZ308, GS-2 and GS-9 cells to 4x4 synergy map assays again in an acute cytotoxicity assay workflow. The inventors used the R package synergyfinder with zero interaction potential (ZIP) synergy scores calculated from 4x4 concentration matrices for each tested combination and the average across the plate; see He et al. (2018); Methods for High-throughput Drug Combination Screening and Synergy Scoring. In Cancer Systems Biology: Methods and Protocols, von Stechow (ed) pp 351-398. New York, NY: Springer New York.
# GS-9 = experiment: 4x4 synergy map assay (ZIP synergy score); assay type: cell-based; settings: combined with AZD6738 (ATRi)
# Procedure: as §1
# (§2) The inventors leveraged an acute cytotoxicity assay workflow to evaluate potential interaction partners for AZD6738 which were derived from transcriptomic, proteomic and genome-wide CRISPR/Cas9 genetic dependency analyses. […] The inventors used the original Bliss Independence Criterion to evaluate synergism potential. For this, a predicted value for additivity, derived from the product of the two monotherapy settings, was compared to the actual measurement of the combined treatment of the two drugs. […] BMC Systems Biology 4: 50. Subsequently, the inventors subjected LN229, LNZ308, GS-2 and GS-9 cells to 4x4 synergy map assays again in an acute cytotoxicity assay workflow. […] New York, NY: Springer New York.
# GS-2 cells = experiment: 4x4 synergy map assay (ZIP synergy score); assay type: cell-based; settings: combined with AZD6738 (ATRi)
# Procedure: as §1, §2
# LNZ308 = experiment: 4x4 synergy map assay (ZIP synergy score); assay type: cell-based, human; settings: combined with AZD6738 (ATRi)
# Procedure: as §1, §2
# LN229 cells = experiment: 4x4 synergy map assay (ZIP synergy score); assay type: cell-based, human; settings: combined with AZD6738 (ATRi)
# Procedure: as §1, §2
structure (smiles),measurement,setting,value
"CNCc1ccc(-c2cc(-c3nc(-c4ccc(S(=O)(=O)C(C)C)cc4)cnc3N)on2)cc1 [Berzosertib, berzosertib]",anti-glioma activity in vitro,[1],significant anti-glioma activity
"N.N.[Cl][Pt][Cl] [cisplatin, cis-diammine dichloridoplatin]",combination efficacy (Bliss Independence Criterion),[2]; all six primary cultures,synergistic read-outs
same,ZIP synergy score (synergism signature),[3],synergism signature
same,tumor area,LN229-GFP cells,modest decrease
COc1cccc2c1C(=O)c1c(O)c3c(c(O)c1C2=O)C[C@@](O)(C(=O)CO)C[C@@H]3O[C@H]1C[C@H](N)[C@H](O)[C@H](C)O1 [doxorubicin],Bliss synergy scores,LN229 and LNZ308 cells,top scoring hits
"COc1cc([C@@H]2c3cc4c(cc3[C@@H](O[C@@H]3O[C@@H]5CO[C@@H](C)O[C@H]5[C@H](O)[C@H]3O)[C@H]3COC(=O)[C@H]23)OCO4)cc(OC)c1O [etoposide, Etoposide]",Bliss synergy scores,LN229 and LNZ308 cells,top scoring hits
CO[C@H]1C[C@@H]2CC[C@@H](C)[C@@](O)(O2)C(=O)C(=O)N2CCCC[C@H]2C(=O)O[C@H]([C@H](C)C[C@@H]2CC[C@@H](OCCO)[C@H](OC)C2)CC(=O)[C@H](C)/C=C(\C)[C@@H](O)[C@@H](OC)C(=O)[C@H](C)C[C@H](C)/C=C/C=C/C=C/1C [everolimus],Bliss synergy scores,LN229 and LNZ308 cells,top candidates
COc1ccc2c(c1)[nH]c1c(C)nccc12 [harmine],Bliss synergy scores,LN229 and LNZ308 cells,top scoring hits
"NC(=O)NO [hydroxyurea, hydroxycarbamide]",combination efficacy (Bliss Independence Criterion),"[2]; TUE-PC1, TUE-PC4, TUE-PC5",not
same,combination efficacy (Bliss Independence Criterion),"[2]; TUE-PC2, TUE-PC3 and TUE-PC6",synergistic readout
same,ZIP synergy score (synergism signature),[3],synergism signature
same,Bliss synergy scores,LN229 and LNZ308 cells,top scoring hits
"O=C(c1cc(Cc2n[nH]c(=O)c3ccccc23)ccc1F)N1CCN(C(=O)C2CC2)CC1 [olaparib, Olaparib]",ZIP synergy score (interaction with ATRi),GS-9,do not
same,ZIP synergy score (interaction with ATRi),GS-2 cells,synergistic interaction
same,ZIP synergy score (interaction with ATRi),LNZ308,do not
same,ZIP synergy score (interaction with ATRi),LN229 cells,synergistic interaction
same,Bliss synergy scores,LN229 and LNZ308 cells,top scoring hits
"O=c1sn(-c2cccc3ccccc23)c(=O)n1Cc1ccccc1 [tideglusib, Tideglusib]",Bliss synergy scores,LN229 and LNZ308 cells,top scoring hits
"O=C(CCCCCCC(=O)Nc1ccccc1)NO [vorinostat, suberoylanilide hydroxamic acid]",Bliss synergy scores,LN229 and LNZ308 cells,top scoring hits
